Consider eleven molecules from patent US20090143457A1, “POLYCYCLIC COMPOUNDS FOR USE IN TREATING OCULAR NEURODEGENERATIVE DISEASES” (NORTHEASTERN OHIO UNIVERSITIES COLLEGE OF MEDICINE, priority 2007, published 2009).

Several values for one entry are separate records, joined by “and”; a condition that tells them apart may be missing. Equal values may be shown once.

Test [1] deals with MK-801 binding site in the NMDA channel. The experiment in a line: [3H]MK-801 displacement binding in homogenate in the presence of NMDA and Gly. The note with it: for Hill slope value: dose-response of [3H]MK-801 binding; for displacement of [3H]MK-801: NMDA (100 μM) and Gly (100 μM), 5 nM [3H]MK-801, relative to total binding. Here is the method:
Now referring to FIG. 3, an example graph 300 that illustrates that at least a subset of the compounds described above have an affinity for the MK-801 binding site in the NMDA channel is presented. More particularly, some triquinylamine compounds may have an affinity for the MK-801 binding site in the NMDA channel. The triquinane-derived azatricycloundecane compounds 100, 102, 108, 116, and 118 (FIGS. 1a, 1b, 1e, 1i, and 1j, respectively) were tested for an ability to displaced labeled MK-801, and the results of such testing are shown in FIG. 3. The graph 300 also illustrates total binding of radiolabeled MK-801 (Total) and non-specific binding of unlabelled MK-801 (NS). […] Specific [^3H]MK-801 binding to the homogenate can be estimated by subtracting non-specific binding (NS) obtained in the presence of 100 μM unlabeled MK-801 from the total binding. Specific binding represented 75% of the total binding and non-specific binding only 25% of total binding at 5 nM [^3H]MK-80 1. Unlabeled MK-80 1 used to determine the non-specific binding also served as a reference compound. NMDA-stimulated displacement for each tested compound was calculated as the difference between the measured value for the labeled MK-801 in the presence of each test compound, and the total binding, although the purpose of the graph 300 represents only the non-specific binding for that particular compound. The compound 118 displaced [^3H]MK-801 by 41.09±4.1%. For the compounds 116, 108, 100, and 102, respectively, there was no statistically significant displacement of [^3H]MK-801, and displacement values were calculated to be 16.93±4.1%, 14.35±7.9%, 20.85±11.7%, and 9.28±6.17%, respectively. Statistical significance compared to total binding in a t-test is (*) p<0.05, (**) p<0.001.
Referring now to FIG. 4, an example graph 400 that illustrates dose-dependent effect of compound 118 shown in FIG. 1j on [^3H]MK-801 binding in the presence of NMDA (100 μM) and Gly (100 μM). More particularly, the graph 400 depicts results of a dose-response curve fitting that was performed to determine the IC50 value for the compound 118. […] The Hill slope values for compounds with high-affinity as NMDA antagonists (MK-801, Memantine, and NGP1-01) are near unity, with lower potency compounds having greater Hill slop values. The Hill slope value for the compound 118 was −1.157±0.052.
In general terms: Displacement assays read how much labelled ligand stays bound in the presence of the test substance.

Another test concerns L-type calcium channel. The experiment in a line: IC50 with respect to the L-type calcium channel. Format: biochemical.

With `C[C@]12N[C@H](Cc3ccccc31)c1ccccc12` [MK-801, reference compound], in test [1], the Hill slope value entry is “near unity”.
With `CC12CC3CC(C)(C1)CC(N)(C3)C2` [Memantine, reference compound], in test [1], the Hill slope value result is reported as “near unity”.
With `OC12C3C4CC5C6C4C1C6C(C53)N2CCc1ccccc1` (centres unmarked) [compound 104, N-phenylethyl-4-azahexacyclo[5.4.1.0^2,6.0.0^5,9.0^8,11]dodecan-3-ol], the IC50 (in general, the midpoint of a concentration-inhibition curve) with L-type calcium channel came out at 6.8 µM.
For `CCCCCCCN1C2C3C4CC5C6C4C2C6C1(O)C53` (centres unmarked) [compound 106, N-heptyl-4-azahexacyclo[5.4.1.0^2,6.0.0^5,9.0^8,11]dodecan-3-ol], in the test on L-type calcium channel, the IC50 stood at 7.5 µM.
On the same count and under the same terms, to `c1ccc(CCNC23OC4C5C6CC(C7C6C4C72)C53)cc1` (centres unmarked) [compound 112, 8-phenylethylamino-8,11-oxapentacyclo[5.4.0.0^2,6.0^3,10.0^5,9]undecane] belongs 36.4 µM and 36.9 µM.
Take `c1ccc(CNC23OC4C5C6CC(C7C6C4C72)C53)cc1` (centres unmarked) [compound 120, 8-benzylamino-8,11-oxapentacyclo[5.4.0.0^2,6.0^3,10.0^5,9]undecane]: the IC50 with L-type calcium channel is 60 µM. Besides, the Hill slope value entry in test [1] is listed as “near unity”.
In the case of `CCCCCCCN1CCC2CC3CCCC3C21` (centres unmarked) [compound 122, N-heptyl-3,1-azatricyclo[6.3.0.0^2,6]undecane], the IC50 with L-type calcium channel came out at 55 µM.
Consider “N-(pyridin-4-ylmethyl)-3,11-azatricyclo[6.3.0.0^2,6]undecane [compound 102]”, for which the concentration for half-maximal inhibition (IC50) in the test on L-type calcium channel came to 4.9 µM. Further, the “displacement of [3H]MK-801” value in test [1] worked out at 9.28±6.17%.
For the molecule “N-benzyl-3,11-azatricyclo[6.3.0.0^2,6]undecane [compound 118]”, in test [1], the “displacement of [3H]MK-801” value stood at 41.09±4.1% and the Hill slope value is reported as −1.157±0.052. Also, the “affinity for the NMDAR (comparison among triquinane-derived compounds)” value in test [1] (among compounds 100, 102, 108, 116 and 118) is “highest affinity”. Moreover, the IC50 in test [1] (in the presence of NMDA (100 μM) and Gly (100 μM), dose-response curve fitting) worked out at 1.93 ± 0.018 µM.
Take “N-benzyl-4-azahexacyclo[5.4.1.0^2,6.0.0^5,9.0^8,11]dodecan-3-ol [compound 110]”: the IC50 with L-type calcium channel is 32.9 µM.
In the case of “N-cyclohexylmethyl-3,11-azatricyclo[6.3.0.0^2,6]undecane [compound 116]”, in the test with L-type calcium channel, the IC50 was 46 µM and 53 µM. For the same molecule, the “displacement of [3H]MK-801” value in test [1] is recorded as 16.93±4.1%.
